Assay results taken from US9695133B2, “Quinazolinone-based oncogenic-RAS-selective lethal compounds and their use” (THE TRUSTEES OF COLUMBIA UNIVERSITY IN THE CITY OF NEW YORK, priority 2012, dated 2017).

Experiment: Postdose observations in the pharmacokinetic study
Format: in vivo, male C57BL6/j mice
Conditions: single 20 mg/kg IV or PO

postdose observations: No abnormal observations were noted
Structure (SMILES): CC(C)Oc1ccc(CN2CCNCC2)cc1-n1c(CN2CCN(C(=O)COc3ccc(Cl)cc3)CC2)nc2ccccc2c1=O [PE, 2-((4-(2-(4-chlorophenoxy)ethanoyl)piperazin-1-yl)methyl)-3-(2-isopropoxy-5-(piperazin-1-ylmethyl)phenyl)quinazolin-4(3H)-one]
